{
  "source": "patent US9045527B2",
  "about": "“Small molecule conjugates with dimetal species for protein inhibition” (WILLIAM MARSH RICE UNIVERSITY, priority 2012, dated 2015)",
  "key": {"K3a,eRh2 coiled coil": {"test_system": "K3a,eRh2 coiled coil", "assay": "Thermal denaturation of metallopeptide coiled coils monitored by CD", "assay_type": "physicochemical", "settings": "for melting temperature (Tm) of coiled coil: equimolar mixture of E3X peptide and K3a,eRh2 in aq buffer, CD 222 nm", "method": "FIG. 4 is a table detailing the thermal denaturation of metallopeptide coiled coils. The following standard conditions: equimolar mixtures of E3X and K3a,eRh2 in aq buffer (pH 5.9-6.2) were monitored by CD (222 nm) from −5 to 95° C. at 1° C./min. The peptide concentrations are 100 μM. The CD monitored is at 225 nm and in certain embodiments, the peptide concentration is 33 μM.\nRhodium(II) centers are capable of forming stabilizing secondary contacts at the periphery of a protein binding interface while examining the coiled-coil assembly of rhodium(II) metallopeptides with histidine-containing peptides. A rhodium(II) center linked to a coil at positions a and e of a heptad repeat abcdefg (See FIG. 4) would be proximal to position g of the complementary peptide, E3gX.\nCircular Dichroism Spectroscopy: Thermal denaturation experiments (−5-105° C. with a gradient of 1° C./min) were performed on a Jasco-J810 spectropolarimeter with a Peltier temperature controller (Jasco PTC423S). Solutions of 1:1 E3-peptide and K3-metallopeptide (both components 100 or 33 μM) in aqueous buffer in a 0.1 cm sealed cell were analyzed, and ellipticity data were acquired at 222 nm (red data points, S-5). When imidazole additive was utilized, ellipticity data were acquired at 225 nm. Temperature denaturation curves were fit to a two-state unfolding model and plotted (black line, S-5) as fraction unfolded vs. temperature as described previously by Lavigne et al.8 Error associated with the non-linear least squared-determined Tm was determined using the freely available “Solver Statistics” macro for Microsoft Excel."}, "CAL PDZ domain": {"molecular_target": "T1, CAL PDZ domain (Homo sapiens, UniProt Q9HD26)", "T1 construct": "Expression and purification of the WT and mutant CAL PDZ domains were performed according to commonly described and known methods; made in house", "assay": "HSQC footprinting of 15N-CALP", "assay_type": "binding", "settings": "125-μM peptide, 2.5% (v/v) DMSO", "method": "HSQC spectra of 15N-CALP determined separately (red) and in the presence of 125-μM E^RhVQSTRL (SEQ ID NO:7) metallopeptide (green) in 2.5% (v/v) DMSO.\nThe chemical shifts (δ) are reported in units of part per million (ppm) relative to solvent peak. HSQC footprinting: 25 μM N-labeled CAL PDZ protein was also subjected to H, N heteronuclear single quantum correlation spectroscopy (HSQC) analysis, as described, except that tris(2-carboxyethyl)phosphine was omitted from the final dialysis buffers. […] HSQC backbone crosspeaks were assigned by comparison with the previously assigned CALP apo spectrum."}, "N1P1": {"molecular_target": "N1P1", "assay": "N1P1 affinity (uM)", "method": "Table printed on a drawing sheet, Figure 9B\nTitle: Metallopeptide ligands for PDZ domains\nHead of the field: N1P1 affinity (uM)\nThe patent's description of the figure: FIG. 9A is a table of metallopeptide inhibitors of CALP. [a], inhibitor equilibrium dissociation (Ki) constants were determined for cognate peptide/metallopeptide pairs. […] In embodiment, [c]\nFirst copying reader's note: The fold values (22x, 95x and so on) are printed beside brackets joining each peptide/Rh-peptide pair and are repeated in both rows; the H301A block stands apart at the right, has no printed unit, and its rows are matched to the sequences by their height on the sheet.\nWhere the first naming reader finds the target: head: N1P1 affinity (uM)"}, "full-length CAL": {"molecular_target": "T2, full-length CAL (Homo sapiens, UniProt Q9HD26)", "T2 construct": "Western blot of native CAL was captured from epithelial lysates; endogenous in cells; host or cells: CFBE41o- epithelial cell lysate", "assay": "Capture (pulldown) inhibition assay in epithelial cell lysate", "assay_type": "binding", "settings": "CFBE4lo− cell lysates, BT-iCAL36 bait, n=3", "method": "Thus, the metalation improves inhibitor potency.\nCapture inhibition assays: To determine the ability of inhibitor peptides to displace the interactions of full-length CAL in the presence of the epithelial-cell proteome, a capture inhibition assay was developed. Briefly, using published methods a biotin-conjugated peptide “bait” sequence (BT-iCAL36) was immobilized on streptavidin beads and incubated with clarified lysates of CFBE4lo− cells to capture full-length CAL in the presence of cellular proteins. […] Beads were washed and eluted, and bound proteins were separated by SDS-PAGE and immunoblotted using an α-CAL antibody. Band intensities were separately quantified and averaged (n=3)."}, "CAL PDZ domain (CALP)": {"molecular_target": "T3, CAL PDZ domain (CALP) (Homo sapiens, UniProt Q9HD26)", "T3 construct": "Expression and purification of the WT and mutant CAL PDZ domains were performed according to commonly described and known methods; made in house", "assay": "Fluorescence anisotropy inhibition binding assay (displacement of fluorescein-labeled iCAL36 reporter)", "settings": "wild-type CALP", "protocol": "Protein binding studies: Fluorescence anisotropy inhibition binding assays were performed using standard procedures. […] Following equilibration, fluorescence anisotropy values were determined using a Tecan Infinite M1000 plate reader (n=3). Inhibitor equilibrium dissociation (Ki) constants were estimated as described. DMSO and rhodium(II) acetate were used as negative controls for unlabeled and labeled peptides, respectively."}, "CALP [1]": {"molecular_target": "T4, CALP (Homo sapiens, UniProt Q9HD26)", "T4 construct": "Western blot of native CAL was captured from epithelial lysates; endogenous in cells; host or cells: CFBE41o- epithelial cell lysate", "assay": "CALP affinity (uM)", "description": "Head of the field: CALP affinity (uM)"}, "CALP [2]": {"molecular_target": "T4, CALP", "assay": "Ki (μM)", "description": "Head of the field: Ki (μM)"}},
  "note": "Entries after “also recorded” stand apart in the source; their conditions may differ. Where no end group is shown, it is not given here.",
  "data": [
    {"compound": "N[C@@H](CS)C(=O)O", "note": "[E3gC]", "values": [
      {"measurement": "coiled coil stability", "setting": "K3a,eRh2 coiled coil; assembly with K3a,eRh2", "result": "decreased stability"}
    ]},
    {"compound": "CC(=O)N[C@@H](CCC(=O)O)C(=O)N[C@H](C(=O)N[C@@H](CCC(N)=O)C(=O)N[C@@H](CO)C(=O)N[C@H](C(=O)N[C@@H](CCCNC(=N)N)C(=O)N[C@@H](CC(C)C)C(=O)O)[C@@H](C)O)C(C)C", "note": "[EVQSTRL]", "values": [
      {"measurement": "mode of inhibition", "setting": "CAL PDZ domain", "result": "competitive inhibitors"}
    ]},
    {"compound": "CC[C@H](C)[C@H](NC(=O)[C@@H](NC(=O)[C@H](CO)NC(=O)[C@@H](NC(=O)[C@@H]1CCCN1C(=O)[C@H](Cc1c[nH]c2ccccc12)NC(=O)[C@H](CCC(=O)O)NC(C)=O)[C@@H](C)O)[C@@H](C)CC)C(=O)O", "note": "[EWPTSII]", "values": [
      {"measurement": "Ki", "setting": "N1P1", "result": "> 500", "unit": "µM"}
    ]},
    {"compound": "CC(=O)N[C@@H](CCC(=O)O)C(=O)N[C@H](C(=O)N[C@@H](CCC(N)=O)C(=O)N[C@@H](CO)C(=O)N[C@H](C(=O)N[C@@H](CCCNC(=N)N)C(=O)N[C@@H](CC(C)C)C(=O)O)[C@@H](C)O)C(C)C", "note": "[E^RhVQSTRL]", "values": [
      {"measurement": "mode of inhibition", "setting": "CAL PDZ domain", "result": "competitive inhibitors"},
      {"measurement": "inhibition of CAL pulldown", "setting": "full-length CAL", "result": "improved inhibition; also recorded: dose-dependent inhibition"}
    ]},
    {"compound": "CC[C@H](C)[C@H](NC(=O)[C@@H](NC(=O)[C@H](CO)NC(=O)[C@@H](NC(=O)[C@@H]1CCCN1C(=O)[C@H](Cc1c[nH]c2ccccc12)NC(=O)[C@H](CCC(=O)O)NC(C)=O)[C@@H](C)O)[C@@H](C)CC)C(=O)O", "note": "[E^RhWPTSII]", "values": [
      {"measurement": "Ki", "setting": "N1P1", "result": "> 50", "unit": "µM"}
    ]},
    {"compound": "CC(=O)[O-].CC(=O)[O-].CC(=O)[O-].CC(=O)[O-].[Rh+2].[Rh+2]", "note": "[Rh2(OAc)4, rhodium(II) acetate]", "values": [
      {"measurement": "Ki", "setting": "CAL PDZ domain (CALP); n=3, read-out: Ki (inhibitor equilibrium dissociation constant)", "result": "13 ± 5", "unit": "µM"}
    ]},
    {"compound": "CC(=O)N[C@H](C(=O)N[C@@H](CCC(N)=O)C(=O)N[C@@H](CC(=O)O)C(=O)N[C@H](C(=O)N[C@@H](CCCNC(=N)N)C(=O)N[C@@H](CC(C)C)C(=O)O)[C@@H](C)O)C(C)C", "note": "[VQDTRL]", "values": [
      {"measurement": "Ki", "setting": "N1P1", "result": 0.7, "unit": "µM"},
      {"measurement": "CALP affinity", "setting": "CAL PDZ domain (CALP)", "result": "weak CALP affinity"}
    ]},
    {"compound": "Ac-EVQSTRF-OH [EVQSTRF]", "values": [
      {"measurement": "Ki", "setting": "CALP [1]", "result": "> 1000", "unit": "µM"}
    ]},
    {"compound": "Ac-EVQSTRF-OH [E^RhVQSTRF]", "values": [
      {"measurement": "Ki", "setting": "CALP [1]", "result": "> 15", "unit": "µM"}
    ]},
    {"compound": "Ac-QLDVTR-OH [QLDVTR]", "values": [
      {"measurement": "Ki", "setting": "CALP [2]", "result": "> 500", "unit": "µM"}
    ]},
    {"compound": "E3cH: E3 coil peptide with histidine moved to position c (Ac-EISALEKEISHLEQEISALEK)", "values": [
      {"measurement": "melting temperature (Tm) of coiled coil", "setting": "K3a,eRh2 coiled coil", "result": 47.0, "unit": "°C"}
    ]},
    {"compound": "E3gE: E3 coil peptide with glutamate at position g (Ac-EISALEKEISALEQEISALEK)", "values": [
      {"measurement": "melting temperature (Tm) of coiled coil", "setting": "K3a,eRh2 coiled coil", "result": 50.2, "unit": "°C"}
    ]},
    {"compound": "E3gF: E3 coil control peptide with non-coordinating phenylalanine at position g (Ac-EISALEKFISALEQEISALEK) [reference compound]", "values": [
      {"measurement": "melting temperature (Tm) of coiled coil", "setting": "K3a,eRh2 coiled coil", "result": 39.5, "unit": "°C"}
    ]},
    {"compound": "E3gM: E3 coil peptide with methionine at position g (Ac-EISALEKMISALEQEISALEK)", "values": [
      {"measurement": "melting temperature (Tm) of coiled coil", "setting": "K3a,eRh2 coiled coil", "result": "> 70", "unit": "°C"}
    ]},
    {"compound": "QLD^RhVTR: metallopeptide derived from a non-binding, scrambled control sequence (Ac-QLDVTR; also: rhodium(II) metalated, site not placed)", "values": [
      {"measurement": "CALP affinity", "setting": "CAL PDZ domain (CALP)", "result": "comparable"}
    ]}
  ]
}
